#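 Five compound concentrations were applied to cells in 96-well plates for 48 hours; endpoints were derived by simple linear interpolation of the resulting dose-response curve. GI50 = concentration required for 50% inhibition of growth. TGI: total growth inhibition.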
# How the values were obtained:
# Assay in all cases: growth of human tumour cells (NCI), 48 h
# [1] = test system: BT-549 breast
# [2] = test system: MDA-MB-435
# [3] = test system: M14 melanoma
# [4] = test system: OVCAR-8 ovarian
# [5] = test system: SW-620 colon
# [6] = test system: SF-268 CNS
# [7] = test system: RPMI-8226 leukemia
# [8] = test system: NCI-H522 lung
# [9] = test system: SK-MEL-28 melanoma
# [10] = test system: NCI/ADR-RES ovarian
# [11] = test system: RXF 393 renal
# [12] = test system: ACHN renal
# [13] = test system: SNB-19 CNS
# [14] = test system: T-47D breast
# [15] = test system: SNB-75 CNS
# [16] = test system: PC-3 prostate
# [17] = test system: HT29 colon
# [18] = test system: HL-60(TB) leukemia
# [19] = test system: 786-0 renal
# [20] = test system: CAKI-1 renal
# [21] = test system: MDA-MB-231 breast
# [22] = test system: NCI-H460 lung
# [23] = test system: HCT-116 colon
# [24] = test system: OVCAR-3 ovarian
# [25] = test system: SK-MEL-2 melanoma
# [26] = test system: HCC-2998 colon
# [27] = test system: UO-31 renal
# [28] = test system: NCI-H23 lung
# [29] = test system: HOP-92 NSCLC
# [30] = test system: TK-10 renal
# [31] = test system: SF-539 CNS
# [32] = test system: CCRF-CEM leukemia
# [33] = test system: A498 renal
# [34] = test system: EKVX NSCLC
# [35] = test system: DU-145 prostate
# [36] = test system: UACC-257 melanoma
# [37] = test system: U251 CNS
# [38] = test system: SN12C renal
# [39] = test system: HOP-62 NSCLC
# [40] = test system: KM12 colon
# [41] = test system: SK-OV-3 ovarian
# [42] = test system: LOX IMVI melanoma
# [43] = test system: MOLT-4 leukemia
# [44] = test system: OVCAR-4 ovarian
# [45] = test system: K-562 leukemia
# [46] = test system: HS 578T breast
# [47] = test system: SR leukemia
# [48] = test system: MALME-3M melanoma
# [49] = test system: HCT-15 colon
# [50] = test system: IGROV1 ovarian
# [51] = test system: SK-MEL-5 melanoma
# [52] = test system: OVCAR-5 ovarian
# [53] = test system: SF-295 CNS
# [54] = test system: MCF7 breast
# [55] = test system: UACC-62 melanoma
# [56] = test system: A549 NSCLC
# [57] = test system: COLO 205 colon
# [58] = test system: NCI-H226 lung
# [59] = test system: MDA-N
smiles,measurement,setting,value
CN(C)CCNC(=O)NC[C@H]1CC[C@@H]2[C@H](O1)c1cc(C(F)(F)F)ccc1N[C@H]2c1ccccc1,GI50,[1],389 nM
same,TGI,[1],14.7 µM
same,GI50,[2],27.8 nM
same,TGI,[2],71.8 nM
same,GI50,[3],41 nM
same,TGI,[3],684 nM
same,GI50,[4],233 nM
same,TGI,[4],> 100 µM
same,GI50,[5],76.5 nM
same,TGI,[5],17.1 µM
same,GI50,[6],589 nM
same,TGI,[6],39.6 µM
same,GI50,[7],163 nM
same,TGI,[7],8.48 µM
same,GI50,[8],50.6 nM
same,TGI,[8],303 nM
same,GI50,[9],1630 nM
same,TGI,[9],21.5 µM
same,GI50,[10],5.99 µM
same,TGI,[10],> 100 µM
same,GI50,[11],249 nM
same,TGI,[11],18.4 µM
same,GI50,[12],10.5 µM
same,TGI,[12],23 µM
same,GI50,[13],624 nM
same,TGI,[13],> 100 µM
same,GI50,[14],371 nM
same,TGI,[14],17.8 µM
same,GI50,[15],320 nM
same,TGI,[15],23.4 µM
same,GI50,[16],265 nM
same,TGI,[16],27 µM
same,GI50,[17],303 nM
same,TGI,[17],11.2 µM
same,GI50,[18],154 nM
same,TGI,[18],672 nM
same,GI50,[19],5.42 µM
same,TGI,[19],36.3 µM
same,GI50,[20],4.74 µM
same,TGI,[20],> 68200 nM
same,GI50,[21],240 nM
same,TGI,[21],3.6 µM
same,GI50,[22],140 nM
same,TGI,[22],11.8 µM
same,GI50,[23],41.4 nM
same,TGI,[23],14.7 µM
same,GI50,[24],264 nM
same,TGI,[24],10.3 µM
same,GI50,[25],150 nM
same,TGI,[25],2.32 µM
same,GI50,[26],275 nM
same,TGI,[26],18.6 µM
same,GI50,[27],6.12 µM
same,TGI,[27],34.6 µM
same,GI50,[28],495 nM
same,TGI,[28],> 48.3 µM
same,GI50,[29],1250 nM
same,TGI,[29],29 µM
same,GI50,[30],9.78 µM
same,TGI,[30],27.5 µM
same,GI50,[31],187 nM
same,TGI,[31],8.31 µM
same,GI50,[32],137 nM
same,TGI,[32],3.85 µM
same,GI50,[33],196 nM
same,TGI,[33],10.5 µM
same,GI50,[34],11.1 µM
same,TGI,[34],> 100 µM
same,GI50,[35],253 nM
same,TGI,[35],792 nM
same,GI50,[36],10.5 µM
same,TGI,[36],23.9 µM
same,GI50,[37],53.7 nM
same,TGI,[37],1.69 µM
same,GI50,[38],455 nM
same,TGI,[38],> 51.7 µM
same,GI50,[39],1710 nM
same,TGI,[39],24.1 µM
same,GI50,[40],296 nM
same,TGI,[40],14.6 µM
same,GI50,[41],42.5 nM
same,TGI,[41],10 µM
same,GI50,[42],2530 nM
same,TGI,[42],27.3 µM
same,GI50,[43],373 nM
same,TGI,[43],19.6 µM
same,GI50,[44],3.03 µM
same,TGI,[44],22.2 µM
same,GI50,[45],75.7 nM
same,TGI,[45],14.8 µM
same,GI50,[46],173 nM
same,TGI,[46],18.1 µM
same,GI50,[47],41.1 nM
same,TGI,[47],15.1 µM
same,GI50,[48],582 nM
same,TGI,[48],22.4 µM
same,GI50,[49],1020 nM
same,TGI,[49],16.5 µM
same,GI50,[50],578 nM
same,TGI,[50],40.7 µM
same,GI50,[51],99.9 nM
same,TGI,[51],15.8 µM
same,GI50,[52],609 nM
same,TGI,[52],22.6 µM
same,GI50,[53],194 nM
same,TGI,[53],5.73 µM
same,GI50,[54],38.9 nM
same,TGI,[54],13.8 µM
same,GI50,[55],276 nM
same,TGI,[55],15.9 µM
same,GI50,[56],175 nM
same,TGI,[56],17.4 µM
same,GI50,[57],47.6 nM
same,TGI,[57],0.236 µM
same,GI50,[58],15.1 µM
same,TGI,[58],43.4 µM
COC1/C=C/C(C)C(C(C)C(OC)C(C)CCC(=O)C(C)C(CC(=O)O)OC)OC(=O)/C=C/C=C(\C)CC(OC)CC2=CC(=O)O[C@H](C2)C(C)C(OC)CC(OC)/C=C/C(C)C(OC)C1 (stereo partly specified),TGI,[2],> 4350 nM
same,TGI,[3],> 4350 nM
same,TGI,[4],> 4.35 µM
same,TGI,[5],> 4.35 µM
same,TGI,[6],0.207 µM
same,TGI,[7],> 4.35 µM
same,TGI,[8],1820 nM
same,TGI,[9],1.25 µM
same,TGI,[10],> 4.35 µM
same,TGI,[12],> 4.35 µM
same,TGI,[13],> 4.35 µM
same,TGI,[14],> 4.35 µM
same,TGI,[15],0.0426 µM
same,TGI,[16],3.1 µM
same,TGI,[17],> 4.35 µM
same,TGI,[18],1730 nM
same,TGI,[19],> 4.35 µM
same,TGI,[20],851 nM
same,TGI,[21],> 4.35 µM
same,TGI,[22],> 4.35 µM
same,TGI,[24],> 4.35 µM
same,TGI,[25],> 4.35 µM
same,TGI,[26],> 4.35 µM
same,TGI,[27],1.22 µM
same,TGI,[28],> 4.35 µM
same,TGI,[29],1.32 µM
same,TGI,[30],1.66 µM
same,TGI,[32],> 4.35 µM
same,TGI,[33],2.17 µM
same,TGI,[34],> 4.35 µM
same,TGI,[35],> 4350 nM
same,TGI,[36],> 4.35 µM
same,TGI,[37],> 4.35 µM
same,TGI,[38],> 4.35 µM
same,TGI,[39],> 4.35 µM
same,TGI,[40],> 4.35 µM
same,TGI,[41],> 4.35 µM
same,TGI,[43],> 4.35 µM
same,TGI,[44],> 4.35 µM
same,TGI,[45],> 4.35 µM
same,TGI,[46],0.387 µM
same,TGI,[47],> 4.35 µM
same,TGI,[49],> 4.35 µM
same,TGI,[50],0.435 µM
same,TGI,[51],> 4.35 µM
same,TGI,[52],> 4.35 µM
same,TGI,[53],2.19 µM
same,TGI,[54],> 4.35 µM
same,TGI,[55],3.05 µM
same,TGI,[56],> 4.35 µM
same,TGI,[57],> 4.35 µM
same,TGI,[58],2.26 µM
same,TGI,[59],> 4.35 µM
O=C1CCCc2ccc3c(c21)CC1(Cc2ccccc2C1)C3,TGI,[2],> 100000 nM
same,TGI,[3],> 100000 nM
same,TGI,[4],> 100 µM
same,TGI,[7],48.1 µM
same,TGI,[8],74300 nM
same,TGI,[10],> 100 µM
same,TGI,[11],> 100 µM
same,TGI,[12],68.9 µM
same,TGI,[14],> 100 µM
same,TGI,[15],9.64 µM
same,TGI,[16],> 100 µM
same,TGI,[17],45 µM
same,TGI,[19],> 100 µM
same,TGI,[21],> 100 µM
same,TGI,[23],55.7 µM
same,TGI,[24],98.6 µM
same,TGI,[25],> 100 µM
same,TGI,[26],> 100 µM
same,TGI,[27],> 100 µM
same,TGI,[28],> 100 µM
same,TGI,[29],50.6 µM
same,TGI,[30],> 100 µM
same,TGI,[31],> 100 µM
same,TGI,[33],> 100 µM
same,TGI,[34],> 100 µM
same,TGI,[36],58 µM
same,TGI,[37],> 100 µM
same,TGI,[38],> 100 µM
same,TGI,[39],> 100 µM
same,TGI,[40],> 100 µM
same,TGI,[41],> 100 µM
same,TGI,[42],> 100 µM
same,TGI,[44],98.8 µM
same,TGI,[45],30 µM
same,TGI,[46],> 100 µM
same,TGI,[48],> 100 µM
same,TGI,[49],> 100 µM
same,TGI,[50],> 100 µM
same,TGI,[51],33.4 µM
same,TGI,[52],> 100 µM
same,TGI,[53],> 100 µM
same,TGI,[54],> 100 µM
same,TGI,[55],> 100 µM
same,TGI,[56],> 100 µM
same,TGI,[57],52.3 µM
same,TGI,[58],67.3 µM
same,TGI,[59],67.2 µM

# Source: PubChem BioAssay (NCI)
